In patent publication US20090247646A1, “USE OF RESVERATROL AND DERIVATIVES THEREOF FOR PROMOTING THE WELLNESS STATE IN MAMMALS” (priority 2006, published 2009):
“And” between values parts separate entries of the source, which are not always exact repeats. Equal values may be shown once.

System: gene expression in heart tissue
Experiment: Genome-wide gene expression in heart tissue of old mice fed a resveratrol-supplemented diet (Affymetrix Mouse Genome 430 2.0 array)
Assay type: in vivo
[1] = anaphase-promoting complex subunit 5, Genebank ID AK003821
[2] = calreticulin 3, Genebank ID AI324734
[3] = casein kinase II, alpha 1 polypeptide, Genebank ID BB283759
[4] = cathepsin B, Genebank ID M14222
[5] = cathepsin Z, Genebank ID NM_022325
[6] = cylindromatosis (turban tumor syndrome), Genebank ID AK013508
[7] = dual specificity phosphatase 6, Genebank ID NM_026268
[8] = dynein, cytoplasmic, heavy chain 1, Genebank ID NM_030238
[9] = dystrophia myotonica kinase, B15, Genebank ID AW108486
[10] = eukaryotic translation elongation factor 2, Genebank ID BC007152
[11] = eukaryotic translation initiation factor 2, subunit 3, structural gene X-linked, Genebank ID NM_012010
[12] = eukaryotic translation initiation factor 3, subunit 10 (theta), Genebank ID AW701127
[13] = eukaryotic translation initiation factor 4, gamma 1, Genebank ID BF227830
[14] = eukaryotic translation initiation factor 4A1, Genebank ID BI656407
[15] = eukaryotic translation initiation factor 4E like 3, Genebank ID AI449084
[16] = expressed sequence AI663987, Genebank ID BB764994
[17] = expressed sequence AW319487, Genebank ID NM_054085
[18] = f-box only protein 9, Genebank ID AK018482
[19] = f-box only protein 9, Genebank ID NM_023605
[20] = furin (paired basic amino acid cleaving enzyme), Genebank ID NM_011046
[21] = gene trap locus 6, Genebank ID BG923744
[22] = glutamyl-prolyl-tRNA synthetase, Genebank ID BM238943
[23] = golgi associated, gamma adaptin ear containing, ARF binding protein 3, Genebank ID BB501734
[24] = heat shock protein 1, beta, Genebank ID BI154147
[25] = homocysteine-inducible, endoplasmic reticulum stress-inducible, ubiquitin-like domain member 1, Genebank ID AI835088
[26] = homocysteine-inducible, endoplasmic reticulum stress-inducible, ubiquitin-like domain member 1, Genebank ID NM_022331
[27] = insulin degrading enzyme, Genebank ID AV027702
[28] = isoprenylcysteine carboxyl methyltransferase, Genebank ID BF462080
[29] = large tumor suppressor 2, Genebank ID BE986745
[30] = lipocalin 7, Genebank ID BC005738
[31] = membrane metallo endopeptidase [BLAST], Genebank ID AV174022
[32] = methionyl aminopeptidase 1, Genebank ID BG064851
[33] = microtubule associated serine/threonine kinase 2, Genebank ID NM_008641
[34] = mitochondrial ribosomal protein L9, Genebank ID AK021196
[35] = mitochondrial ribosomal protein L27, Genebank ID NM_053161
[36] = mitochondrial ribosomal protein L43, Genebank ID NM_053164
[37] = mitogen activated protein kinase kinase kinase 4, Genebank ID U11548
[38] = myotubularin related protein 1, Genebank ID BB381813
[39] = myotubularin related protein 6, Genebank ID BC020019
[40] = neural precursor cell expressed, developmentally down-regulted gene 4, Genebank ID BG073415
[41] = proteasome (prosome, macropain) subunit, alpha type 2, Genebank ID NM_008944
[42] = protein kinase inhibitor, alpha, Genebank ID AK010212
[43] = protein kinase, interferon inducible double stranded RNA dependent activator, Genebank ID NM_011871
[44] = protein phosphatase 1B, magnesium dependent, beta isoform, Genebank ID AJ271833
[45] = protein tyrosine phosphatase 4a2, Genebank ID AW495875
[46] = protein tyrosine phosphatase 4a3, Genebank ID AK014601
[47] = protein tyrosine phosphatase, non-receptor type 21, Genebank ID AW987375
[48] = protein tyrosine phosphatase-like (proline instead of catalytic arginine), member a, Genebank ID BB014781
[49] = puromycin-sensitive aminopeptidase, Genebank ID AK010446
[50] = ribonuclease P2, Genebank ID BG069849
[51] = ribosome binding protein 1, Genebank ID AK019964
[52] = ring finger protein 13, Genebank ID NM_011883
[53] = sarcolemma associated protein, Genebank ID NM_032008
[54] = serum/glucocorticoid regulated kinase, Genebank ID NM_011361
[55] = sialyltransferase 10 (alpha-2,3-sialyltransferase VI), Genebank ID NM_018784
[56] = suppressor of initiator codon mutations, related sequence 1 (S. cerevisiae), Genebank ID BI693609
[57] = synaptojanin 2 binding protein, Genebank ID AK008254
[58] = tousled-like kinase 1, Genebank ID BM244995
[59] = transferrin receptor, Genebank ID AK011596
[60] = transient receptor potential cation channel, subfamily M, member 7, Genebank ID AV320241
[61] = tumor rejection antigen gp96, Genebank ID BE995678
[62] = ubiquitin protein ligase E3 component n-recognin 1, Genebank ID BQ173927
[63] = ubiquitin specific protease 3, Genebank ID BM936366
[64] = ubiquitin specific protease 10, Genebank ID NM_009462
[65] = ubiquitin-conjugating enzyme E2D 3 (UBC4/5 homolog, yeast), Genebank ID AK009276

Compound: Oc1ccc(/C=C/c2cc(O)cc(O)c2)cc1 [resveratrol, 3,4′,5-Trihydroxy-trans-stilbene]
- share of genes that resembled or exceeded the expression level of the young group (among genes changed by resveratrol treatment, heart): 58.1%
- % of res effect [1]: 74.85%
- Median RES [1]: 33166
- Median RES (basic leucine zipper and W2 domains 1, Genebank ID AV144956 (three lines), listed as RES): 19500 and 38679 and 25745
- % of res effect (basic leucine zipper and W2 domains 1, Genebank ID AV144956 (three lines), listed as res): 83.81% and 115.0685% and 138.536%
- % of res effect (calnexin, Genebank ID BI653492): 100.0356%
- Median RES (calnexin, Genebank ID BI653492): 30204
- % of res effect [2]: 114.042%
- Median RES [2]: 8927
- % of res effect [3]: 134.9706%
- Median RES [3]: 5588
- % of res effect [4]: 76.17%
- Median RES [4]: 194089
- % of res effect [5]: 116.4892%
- Median RES [5]: 43097
- % of res effect (cullin 3, Genebank ID AV273804): 77.09%
- Median RES (cullin 3, Genebank ID AV273804): 22604
- % of res effect [6]: 103.8541%
- Median RES [6]: 8255
- expression of genes involved in protein modification (down-regulated in the group of old animals, resveratrol group): these effects were reversed
- % of res effect [7]: 107.0693%
- Median RES [7]: 13740
- % of res effect [8]: 152.317%
- Median RES [8]: 30053
- % of res effect [9]: 145.8017%
- Median RES [9]: 62794
- % of res effect [10]: 164.0928%
- Median RES [10]: 165689
- % of res effect [11]: 52.7%
- Median RES [11]: 10650
- % of res effect [12]: 107.144%
- Median RES [12]: 55723
- % of res effect [13]: 137.7081%
- Median RES [13]: 73196
- % of res effect [14]: 101.3515%
- Median RES [14]: 71501
- % of res effect [15]: 79.59%
- Median RES [15]: 14990
- % of res effect (eukaryotic translation initiation factor 4E, Genebank ID BB406487 (two lines), listed as res): 101.5818% and 143.9243%
- % of res effect [16]: 178.7778%
- Median RES [16]: 12520
- % of res effect [17]: 126.3056%
- Median RES [17]: 19940
- % of res effect [18]: 67.8%
- Median RES [18]: 6555
- % of res effect [19]: 158.6897%
- Median RES [19]: 48649
- % of res effect [20]: 190.9945%
- Median RES [20]: 8279
- % of res effect [21]: 134.4155%
- Median RES [21]: 40130
- % of res effect [22]: 85.98%
- Median RES [22]: 16720
- % of res effect [23]: 171.8414%
- Median RES [23]: 5532
- % of res effect [24]: 153.7873%
- Median RES [24]: 150912
- % of res effect [25]: 127.2443%
- Median RES [25]: 90964
- % of res effect [26]: 133.1523%
- Median RES [26]: 107786
- % of res effect [27]: 106.9366%
- Median RES [27]: 25035
- % of res effect [28]: 160.1528%
- Median RES [28]: 6260
- % of res effect [29]: 56.11%
- Median RES [29]: 6754
- % of res effect [30]: 179.6828%
- Median RES [30]: 14280
- % of res effect [31]: 119.1558%
- Median RES [31]: 8513
- % of res effect [32]: 80.68%
- Median RES [32]: 10496
- % of res effect [33]: 161.6802%
- Median RES [33]: 45140
- % of res effect [34]: 80.96%
- Median RES [34]: 25890
- % of res effect [35]: 182.0376%
- Median RES [35]: 91619
- % of res effect [36]: 104.1651%
- Median RES [36]: 61436
- % of res effect [37]: 124.4234%
- Median RES [37]: 9718
- % of res effect [38]: 78.35%
- Median RES [38]: 14340
- % of res effect [39]: 86.67%
- Median RES [39]: 16336
- % of res effect [40]: 52.89%
- Median RES [40]: 86633
- share of age-changed genes changed in the direction of the group of younger adult mice (of 1285 genes, heart): 45.5%
- % of res effect [41]: 104.7586%
- Median RES [41]: 139883
- % of res effect [42]: 59.34%
- Median RES [42]: 40073
- % of res effect [43]: 171.5674%
- Median RES [43]: 13990
- % of res effect [44]: 63.71%
- Median RES [44]: 52488
- % of res effect [45]: 71.59%
- Median RES [45]: 200548
- % of res effect [46]: 210.2152%
- Median RES [46]: 52165
- % of res effect [47]: 218.6485%
- Median RES [47]: 4135
- % of res effect [48]: 76.7738%
- Median RES [48]: 98966
- % of res effect [49]: 212.0408%
- Median RES [49]: 19697
- expression of genes related to protein synthesis and protein folding (reduced in old animals, old animals fed resveratrol-supplemented diet): upregulated to or close to the level found in young animals
- % of res effect [50]: 103.1963%
- Median RES [50]: 23730
- % of res effect [51]: 152.3511%
- Median RES [51]: 37971
- % of res effect [52]: 142.3463%
- Median RES [52]: 33170
- % of res effect [53]: 86.14%
- Median RES [53]: 11160
- Median RES (serine/threonine kinase 17b (apoptosis-inducing), Genebank ID AV173139 (two lines), listed as RES): 8039 and 12069
- % of res effect (serine/threonine kinase 17b (apoptosis-inducing), Genebank ID AV173139 (two lines), listed as res): 97.38% and 163.165%
- % of res effect [54]: 173.4519%
- Median RES [54]: 72667
- % of res effect [55]: 87.76%
- Median RES [55]: 16650
- % of res effect [56]: 80.5962%
- Median RES [56]: 203121
- % of res effect [57]: 121.5779%
- Median RES [57]: 40710
- number of genes at a level of 80-90% compared to the young group (text b59, heart): 62
- number of genes that reached a level of 70-80% (text b59, heart): 53
- % of res effect [58]: 79.5126%
- Median RES [58]: 4589
- % of res effect [59]: 54.0373%
- Median RES [59]: 86773
- % of res effect [60]: 129.8764%
- Median RES [60]: 19508
- % of res effect [61]: 94.11%
- Median RES [61]: 53900
- % of res effect [62]: 97.81%
- Median RES [62]: 7571
- % of res effect [63]: 151.8677%
- Median RES [63]: 9725
- % of res effect [64]: 186.31%
- Median RES [64]: 12090
- % of res effect [65]: 69.45%
- Median RES [65]: 40250
- number of genes changed in the direction of the group of younger adult mice (within the 1285 genes significantly changed between young and old mice (at least 1.25-fold, p<0.01), heart): 585
